The record followed here is US20260070899A1, “N-(2-(4-CYANOTHIAZOLIDIN-3-YL)-2-OXOETHYL)-QUINOLINE-4-CARBOXAMIDES” (AstraZeneca AB, priority 2022, published 2026).

In brackets after ≈: the same amount, converted by molar mass.

The target of data set [1] is T1, hFAP (Homo sapiens, UniProt Q12884).
T1 sequence (Q12884 38-760): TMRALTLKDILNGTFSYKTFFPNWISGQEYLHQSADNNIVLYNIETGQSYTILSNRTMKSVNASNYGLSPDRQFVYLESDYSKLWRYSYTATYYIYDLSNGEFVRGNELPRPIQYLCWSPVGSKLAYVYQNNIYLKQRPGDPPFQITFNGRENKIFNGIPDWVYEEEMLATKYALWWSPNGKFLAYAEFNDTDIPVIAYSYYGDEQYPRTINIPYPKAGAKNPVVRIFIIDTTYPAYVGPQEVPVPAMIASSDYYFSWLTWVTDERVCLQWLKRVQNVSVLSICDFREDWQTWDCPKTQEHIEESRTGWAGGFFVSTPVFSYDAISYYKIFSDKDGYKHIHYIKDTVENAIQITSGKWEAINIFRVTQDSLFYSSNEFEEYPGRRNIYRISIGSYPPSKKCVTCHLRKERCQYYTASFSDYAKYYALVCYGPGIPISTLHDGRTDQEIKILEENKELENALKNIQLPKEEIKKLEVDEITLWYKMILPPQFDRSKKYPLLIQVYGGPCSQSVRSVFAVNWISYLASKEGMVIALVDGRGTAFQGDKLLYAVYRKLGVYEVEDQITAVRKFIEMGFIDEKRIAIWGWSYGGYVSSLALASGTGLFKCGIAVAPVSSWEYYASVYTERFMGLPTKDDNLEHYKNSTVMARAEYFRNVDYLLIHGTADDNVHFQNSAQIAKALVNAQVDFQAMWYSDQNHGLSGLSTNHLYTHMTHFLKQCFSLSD
Briefly: biochemical.
Procedure: 384 low volume black plates (Greiner #784076) were used. 4 μL, 0.48 nM enzyme solution (100 mM Tris HCl, 100 mM NaCl, 0.05% Chaps, pH 7.4) was added to 40 nL compounds (in DMSO) at 10 CR, 3 fold dilution series from 50 μM FAC. Plates were incubated for 15 min at rt in dark. 4 μL, 40 μM substrate solution (100 mM Tris HCl, 100 mM NaCl, 0.05% Chaps, pH 7.4) was added to each well. Plates were centrifuged at 1000 rpm and incubated for 30 min at rt in dark. The plates were read on a PHERAstar® reader with excitation 340 nm and emission 460 nm. Data were analyzed in Genedata Screener®. IC50 values were determined by plotting % inhibition versus log compound concentration and using a one site dose response model.

Data set [2] concerns the target T2, hFAP (M39-A757) (Homo sapiens, UniProt Q12884).
T2 sequence (Q12884 39-757): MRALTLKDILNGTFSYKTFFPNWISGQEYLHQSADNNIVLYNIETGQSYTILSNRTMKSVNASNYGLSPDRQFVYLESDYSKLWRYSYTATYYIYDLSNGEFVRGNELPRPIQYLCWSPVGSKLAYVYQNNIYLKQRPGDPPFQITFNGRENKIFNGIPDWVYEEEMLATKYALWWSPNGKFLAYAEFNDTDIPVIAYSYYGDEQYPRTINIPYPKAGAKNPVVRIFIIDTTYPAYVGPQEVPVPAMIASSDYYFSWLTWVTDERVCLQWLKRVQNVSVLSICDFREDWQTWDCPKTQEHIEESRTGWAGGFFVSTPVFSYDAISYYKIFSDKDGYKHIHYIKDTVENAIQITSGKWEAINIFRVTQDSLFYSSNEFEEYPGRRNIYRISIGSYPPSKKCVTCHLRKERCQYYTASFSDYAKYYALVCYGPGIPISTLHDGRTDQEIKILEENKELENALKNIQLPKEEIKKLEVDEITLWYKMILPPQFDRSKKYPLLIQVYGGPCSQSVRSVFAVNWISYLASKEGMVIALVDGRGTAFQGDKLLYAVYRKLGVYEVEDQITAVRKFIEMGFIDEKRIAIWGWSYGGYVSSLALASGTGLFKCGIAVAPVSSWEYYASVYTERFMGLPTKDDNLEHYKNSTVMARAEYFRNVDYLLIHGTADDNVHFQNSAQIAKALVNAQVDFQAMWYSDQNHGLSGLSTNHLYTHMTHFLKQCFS
Briefly: biochemical.

The target of data set [3] is T3, Prolyl endopeptidase, Prolyl Oligopeptidase (hPREP) (Homo sapiens, UniProt P48147).
T3 sequence (P48147 1-710): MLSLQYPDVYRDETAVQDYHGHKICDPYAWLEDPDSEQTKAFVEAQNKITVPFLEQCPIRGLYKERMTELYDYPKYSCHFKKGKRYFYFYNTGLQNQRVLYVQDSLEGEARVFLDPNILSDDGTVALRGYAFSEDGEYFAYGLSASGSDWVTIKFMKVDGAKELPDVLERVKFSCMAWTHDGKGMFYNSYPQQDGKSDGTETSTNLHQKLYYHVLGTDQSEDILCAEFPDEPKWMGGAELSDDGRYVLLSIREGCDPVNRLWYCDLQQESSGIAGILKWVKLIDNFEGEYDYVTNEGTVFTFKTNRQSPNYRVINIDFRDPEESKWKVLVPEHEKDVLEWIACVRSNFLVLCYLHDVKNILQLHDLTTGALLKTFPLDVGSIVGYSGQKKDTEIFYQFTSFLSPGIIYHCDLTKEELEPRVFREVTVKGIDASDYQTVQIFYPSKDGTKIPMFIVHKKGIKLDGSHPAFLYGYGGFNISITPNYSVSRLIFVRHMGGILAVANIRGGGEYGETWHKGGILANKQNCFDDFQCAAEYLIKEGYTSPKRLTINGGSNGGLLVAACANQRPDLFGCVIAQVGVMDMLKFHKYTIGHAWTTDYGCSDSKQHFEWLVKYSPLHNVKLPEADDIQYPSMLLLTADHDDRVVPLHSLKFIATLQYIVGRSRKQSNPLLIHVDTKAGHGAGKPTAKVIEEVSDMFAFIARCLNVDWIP
Kind of data set: biochemical.
Procedure: Compounds were tested in a biochemical inhibition assay using Prolyl endopeptidase, Prolyl Oligopeptidase (hPREP) enzyme at 0.6 nM FAC (R&D Systems, 4308-SE) and the substrate Z-Gly-Pro-amino-methylcoumarin (Bachem, I-1145) at 50 μM FAC. 384 Low volume black plates (Greiner #784076) were used. […] Plates were incubated for 15 min at rt in dark. 4 μL, 100 μM substrate solution (25 mM Tris HCl, 250 mM NaCl, 0.01% Triton X-100, 5 mM Glutathione, pH 7.5) was added to each well. Plates were centrifuged at 1000 rpm and incubated for 20 min at rt in dark. The plates were read on a PHERAstar® reader with excitation 340 nm and emission 460 nm. Data were analyzed in Genedata Screener®. IC50 values were determined by plotting % inhibition versus log compound concentration and using a one site dose response model.

The test system of data set [4] is Rat Hepatocytes (rHep). Briefly: Metabolic stability in rat hepatocytes (rHep). Format: in vitro ADME. The note with it: n = 1 or geometric mean (n = 2-3). The procedure:
Metabolic stability in rat hepatocytes was measured as described in J Comput Aided Mol Des 2015, 29, 795.

Data set [5] can be described thus: Metabolic stability in human liver microsomes (HLM). Format: in vitro ADME. The note with it: n = 1 or average (n = 2-3). Here is the method: Metabolic stability in HLM was measured as described in J Comput Aided Mol Des 2015, 29, 795.
Data set [6] can be described thus: Kinetic solubility. Format: physicochemical. The note with it: kinetic from dmso stock, n = 1 or average (n = 2-4). Here is the method: Kinetic solubility was measured as described in Comput Aided Mol Des 2015, 29, 795.
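For Kd in this document: surface plasmon resonance direct binding to hFAP amine-coupled on a sensor chip, rising compound concentrations by single cycle kinetics, Kd from global fit of interaction models.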

Consider `N#C[C@@H]1CSCN1C(=O)CNC(=O)c1ccnc2ccc(C3COCCO3)cc12` (mixture of isomers) [Example 33, N-(2-((R)-4-Cyanothiazolidin-3-yl)-2-oxoethyl)-6-((RS)-1,4-dioxan-2-yl)quinoline-4-carboxamide], for which the IC50 in data set [1] turned out to be 0.54 nM; in data set [3] it was 680 nM. In data set [2], this compound came in with a dissociation constant (Kd) of 0.3 nM.

Turning to `N#C[C@@H]1CSCN1C(=O)CNC(=O)c1ccnc2ccc(C3CCCO3)cc12` (mixture of isomers) [Example 34, N-(2-((R)-4-Cyanothiazolidin-3-yl)-2-oxoethyl)-6-((RS)-tetrahydrofuran-2-yl)quinoline-4-carboxamide], the 50% inhibitory concentration (IC50) in data set [1] was 0.61 nM; in data set [3], 460 nM. In data set [2], binding was characterised by a dissociation constant (Kd) of 0.31 nM.

In turn, `CC1(C)CC(c2ccc3nccc(C(=O)NCC(=O)N4CSC[C@H]4C#N)c3c2)CO1` (mixture of isomers) [Example 61, N-(2-((R)-4-Cyanothiazolidin-3-yl)-2-oxoethyl)-6-(5,5-dimethyltetrahydrofuran-3-yl)quinoline-4-carboxamide] came in with a concentration for half-maximal inhibition (IC50) in data set [3] of 640 nM. Further, the “rHeps CLint” value in data set [4] is recorded as 23 μL/min/1E6. The same compound returned a microsomal CLint in data set [5] of 77 µL/min/mg. In data set [6], the solubility was more than 1000 µM.

Regarding `CC1(C)CC(c2ccc3nccc(C(=O)NCC(=O)N4CSC[C@H]4C#N)c3c2)CCO1` (mixture of isomers) [Example 68, N-(2-((R)-4-Cyanothiazolidin-3-yl)-2-oxoethyl)-6-((RS)-2,2-dimethyltetrahydro-2H-pyran-4-yl)quinoline-4-carboxamide], the half-maximal inhibitory concentration (IC50) in data set [1] is 0.3 nM; in data set [3] it was 330 nM. Moreover, binding in data set [2] was characterised by a dissociation constant (Kd) of 0.075 nM.

Turning to `N#C[C@@H]1CSCN1C(=O)CNC(=O)c1ccnc2ccc([C@]34CCOC[C@H]3C4)cc12` (racemic) [Example 69, 6-((1RS,6SR)-3-Oxabicyclo[4.1.0]heptan-6-yl)-N-(2-((R)-4-cyanothiazolidin-3-yl)-2-oxoethyl)quinoline-4-carboxamide], the figures for the 50% inhibitory concentration (IC50) in data set [1] and in data set [3] were 0.2 nM and 350 nM, respectively. In data set [2], this compound returned a Kd of 0.026 nM.

Take `N#C[C@@H]1CSCN1C(=O)CNC(=O)c1ccnc2ccc(Oc3ccccc3)cc12` [Example 1, (R)—N-(2-(4-Cyanothiazolidin-3-yl)-2-oxoethyl)-6-phenoxyquinoline-4-carboxamide]: the IC50 was 0.44 nM in data set [1] and 35 nM in data set [3]. The compound also displayed a dissociation constant (Kd) in data set [2] of 0.33 nM.

With `N#C[C@@H]1CSCN1C(=O)CNC(=O)c1ccnc2ccc(OC(CF)CF)cc12` [Example 7, (R)—N-(2-(4-Cyanothiazolidin-3-yl)-2-oxoethyl)-6-((1,3-difluoropropan-2-yl)oxy)quinoline-4-carboxamide], the concentration for half-maximal inhibition (IC50) in data set [3] was determined as 150 nM. Further, the “rHeps CLint” value in data set [4] is recorded as 9.1 μL/min/1E6. Moreover, the intrinsic clearance (microsomal CLint) in data set [5] is 40 µL/min/mg. The compound further returned a solubility in data set [6] of 550 µM (≈ 231 µg/mL).

Regarding `N#C[C@@H]1CSCN1C(=O)CNC(=O)c1ccnc2ccc(OCC3CC(F)(F)C3)cc12` [Example 8, (R)—N-(2-(4-Cyanothiazolidin-3-yl)-2-oxoethyl)-6-((3,3-difluorocyclobutyl)methoxy)quinoline-4-carboxamide], the concentration for half-maximal inhibition (IC50) in data set [3] came to 1200 nM. Moreover, in data set [4], the “rHeps CLint” value was found to be 11 μL/min/1E6. In addition, in data set [5], the microsomal CLint was determined as 45 µL/min/mg. In data set [6], this compound yielded a solubility of 8.3 µM (≈ 3.71 µg/mL).

For the compound `N#C[C@@H]1CSCN1C(=O)CNC(=O)c1ccnc2ccc(C(F)(F)F)cc12` [Example 17, (R)—N-(2-(4-Cyanothiazolidin-3-yl)-2-oxoethyl)-6-(trifluoromethyl)-quinoline-4-carboxamide], the half-inhibitory concentration (IC50) stood at 0.79 nM in data set [1] and 35 nM in data set [3]. The compound also returned a dissociation constant Kd in data set [2] of 0.91 nM.

On to `Cc1nn(C)nc1Cc1ccc2nccc(C(=O)NCC(=O)N3CSC[C@H]3C#N)c2c1` [Example 19, (R)—N-(2-(4-Cyanothiazolidin-3-yl)-2-oxoethyl)-6-((2,5-dimethyl-2H-1,2,3-triazol-4-yl)methyl)quinoline-4-carboxamide], for which the half-maximal inhibitory concentration (IC50) in data set [1] is 0.22 nM; in data set [3], 590 nM. This compound returned a Kd in data set [2] of 0.1 nM.

Consider `N#C[C@@H]1CSCN1C(=O)CNC(=O)c1ccnc2ccc(C3=CCOCC3)cc12` [Example 22, (R)—N-(2-(4-Cyanothiazolidin-3-yl)-2-oxoethyl)-6-(3,6-dihydro-2H-pyran-4-yl)quinoline-4-carboxamide], for which the IC50 in data set [1] came to 0.24 nM; in data set [3] it was 560 nM. The Kd in data set [2] was 0.013 nM.

As for `Cc1ccc2nccc(C(=O)NCC(=O)N3CSC[C@H]3C#N)c2c1` [Example 28, (R)—N-(2-(4-cyanothiazolidin-3-yl)-2-oxoethyl)-6-methylquinoline-4-carboxamide], the 50% inhibitory concentration (IC50) was 0.65 nM in data set [1] and 34 nM in data set [3]. This compound also came in with a dissociation constant (Kd) in data set [2] of 1.6 nM.

Consider `Cc1conc1Cc1ccc2nccc(C(=O)NCC(=O)N3CSC[C@H]3C#N)c2c1` [Example 38, (R)—N-(2-(4-Cyanothiazolidin-3-yl)-2-oxoethyl)-6-((4-methylisoxazol-3-yl)methyl)quinoline-4-carboxamide], for which the IC50 in data set [1] amounted to 0.21 nM; in data set [3] it was 180 nM. The same compound showed a Kd in data set [2] of 0.34 nM.

Take `Cc1cc(C)c(Cc2ccc3nccc(C(=O)NCC(=O)N4CSC[C@H]4C#N)c3c2)cn1` [Example 39, (R)—N-(2-(4-Cyanothiazolidin-3-yl)-2-oxoethyl)-6-((4,6-dimethylpyridin-3-yl)methyl)quinoline-4-carboxamide]: the IC50 in data set [1] is 0.34 nM; in data set [3], 530 nM. In data set [2], this compound had a dissociation constant (Kd) of 0.18 nM.

Take `Cn1ncc(Cc2ccc3nccc(C(=O)NCC(=O)N4CSC[C@H]4C#N)c3c2)n1` [Example 41, (R)—N-(2-(4-Cyanothiazolidin-3-yl)-2-oxoethyl)-6-((2-methyl-2H-1,2,3-triazol-4-yl)methyl)quinoline-4-carboxamide]: the IC50 in data set [1] was 0.088 nM; in data set [3], 370 nM. In data set [2], this compound gave a Kd of 0.36 nM.

Consider `COC1(c2ccc3nccc(C(=O)NCC(=O)N4CSC[C@H]4C#N)c3c2)CCOCC1` [Example 66, (R)—N-(2-(4-Cyanothiazolidin-3-yl)-2-oxoethyl)-6-(4-methoxy-tetrahydro-2H-pyran-4-yl)quinoline-4-carboxamide], for which the half-maximal inhibitory concentration (IC50) in data set [1] turned out to be 0.15 nM; in data set [3] it was 460 nM. Also, binding in data set [2] was put at a Kd of 0.15 nM.

As a reminder, the IC50 is the concentration at which inhibition is half-maximal. The Kd is the constant that tells how readily two partners part at equilibrium. By microsomal CLint is commonly meant a measure of how fast metabolising enzymes remove a compound, apart from limits set by blood flow. A high value points to faster metabolism. As a reminder, the solubility is how much of the substance goes into solution per volume.
